According to US10899766B2, “Bridged piperidine derivatives” (Hoffmann-La Roche Inc., priority 2016, dated 2021):

What follows are compounds tested on γ-secretase (assay: Cellular γ-secretase assay (inhibition of Aβ42 secretion, AlphaLisa)). Details: Human neuroglioma H4 cells overexpressing human APP695 Swedish double mutation; 24 hr compound incubation; secreted Aβ42 in supernatant.
Format: cell-based
Procedure: Cellular γ-Secretase Assay
Human neuroglioma H4 cells overexpressing human APP695 with the Swedish double mutation (K595N/M596L) were plated at 30,000 cells/well/100 μl in 96-well plates in IMDM media containing 10% FCS, 0.2 mg/l Hygromycin B and incubated at 37° C., 5% CO2.
3-4 hr post plating, compounds are a diluted in media and 50 μl is added as 1.5-fold concentrate to achieve the final concentration. Compound incubation is performed for 24 hr. Final doses typically range from 4 μM down to 0.0013 μM in half-log steps resulting in a eight point dose response curve.
Appropriate controls using vehicle only and reference compound were applied to this assay. The final concentration of Me2SO was 0.4%.
After incubation at 37° C., 5% CO2, the supernatant was subjected to quantification of secreted Aβ42 by the means of an AlphaLisa assay kit (Human Amyloid beta 1-42 Kit: Cat # AL203C, Perkin Elmer). 20 μl of the cell culture supernatant was transferred to an assay plate. Then 10 μl of a mixture of the AlphaLisa coupled capture antibody and the biotinylated detection antibody was added and incubated for 3 hours at room temperature while softly shaking the assay plate. After a further addition of 20 μl of the Donor beads the assay plate was incubated for 30 min at room temperature and constant shaking without exposure to direct light.
The assay plate was then read on a Paradigm AlphaLisa Reader using the build-in program with excitation at 680 nm and emission at […].
The measured signals were then used to calculate IC50 values for inhibition of Aβ42 secretion by nonlinear regression fit analysis using XLfit 5.3 software (IDBS).

Row | EC50 [nM] | SMILES
1 | 23.3 | Cc1cc(N2C[C@H]3CC[C@@H](C2)[C@@H]3Nc2nc3n(n2)CCCCN3c2ccc(F)c(F)c2)ncn1 [Example 23, 4-(3,4-difluorophenyl)-N-[(1R,5S,8S)-3-(6-methylpyrimidin-4-yl)-3-azabicyclo[3.2.1]octan-8-yl]-5,6,7,8-tetrahydro-[1,2,4]triazolo[1,5-a][1,3]diazepin-2-amine]
2 | 80.4 | COc1cc(N2C[C@H]3CC[C@@H](C2)[C@@H]3Nc2nc3n(n2)CCCCN3c2ccc(F)c(F)c2)ncn1 [Example 24, 4-(3,4-difluorophenyl)-N-[(1R,5S,8S)-3-(6-methoxypyrimidin-4-yl)-3-azabicyclo[3.2.1]octan-8-yl]-5,6,7,8-tetrahydro-[1,2,4]triazolo[1,5-a][1,3]diazepin-2-amine]
3 | 23.4 | Fc1ccc(N2CCCCn3nc(N[C@@H]4[C@@H]5CC[C@H]4CN(c4cnnc(Cl)c4)C5)nc32)cc1F [Example 25, N-[(1R,5S,8S)-3-(6-chloropyridazin-4-yl)-3-azabicyclo[3.2.1]octan-8-yl]-4-(3,4-difluorophenyl)-5,6,7,8-tetrahydro-[1,2,4]triazolo[1,5-a][1,3]diazepin-2-amine]
